According to patent publication EP0039857A1, “Preparation for the care of the skin” (Henkel Kommanditgesellschaft auf Aktien, priority 1980, dated 1981):

Assays:
[1] = tested on: Esterase aus Schweineleber (Carboxylic-esterhydrolase EC 3.1.1.1); experiment: Enzyme inhibition test, esterase (acidimetric comparison with control); type: biochemical, Schwein; conditions: 2 500 ppm test substance; substrate Citronensäuretriethylester; enzyme 1 mg in 16 ml
Experimental: (§1) Zur Feststellung der enzyminhibierenden Wirksamkeit wurde folgende Testmethodik verwendet. Es wurden jeweils 0,2 Mol in 10 bis 20 ml physiologischer NatriumchloridLösung Substrat eingesetzt. Als Testenzyme dienten: • Esterase aus Schweineleber (Carboxylic-esterhydrolase EC 3.1.1.1) • Spezifische Aktivität: circa 100 U/mg, Einsatzkonzentration: 1 mg in 16 ml Lösung. • Als Substrat diente Citronensäuretriethylester. • Lipase aus Rhizopus arrhizus (Triacylglyceroacylhydrolase EC 3.1.1.3) • Spezifische Aktivität: circa 1 200 U/mg, Einsatzkonzentration: 0,25 mg in 20 ml Lösung • Als Substrat diente Olivenöl. Zur Stabilisierung der Emulsion wurde Natriumdesoxycholat und Gummi arabicum verwendet. Die Hemmwerte wurden bestimmt durch azidimetrischen Vergleich der Kontrolle mit der durch die Prüfsubstanz gehemmten Reaktion und in % ausgedrückt. Als Konzentration für die Hemmsubstanzen wurden 2 500 ppm gewählt.

[2] = target: T1, Lipase aus Rhizopus arrhizus (Triacylglyceroacylhydrolase EC 3.1.1.3) (Rhizopus oryzae, UniProt P61872); experiment: Enzyme inhibition test, lipase (acidimetric comparison with control); type: biochemical; conditions: read-out: Hemmwerte in % gegen Lipase; for inhibition at 2500 ppm: substrate Olivenöl, enzyme 0,25 mg in 20 ml
T1 construct: Lipase aus Rhizopus arrhizus (Triacylglyceroacylhydrolase EC 3.1.1.3); host or cells: Rhizopus arrhizus (natural producer)
T1 sequence (P61872 96-392): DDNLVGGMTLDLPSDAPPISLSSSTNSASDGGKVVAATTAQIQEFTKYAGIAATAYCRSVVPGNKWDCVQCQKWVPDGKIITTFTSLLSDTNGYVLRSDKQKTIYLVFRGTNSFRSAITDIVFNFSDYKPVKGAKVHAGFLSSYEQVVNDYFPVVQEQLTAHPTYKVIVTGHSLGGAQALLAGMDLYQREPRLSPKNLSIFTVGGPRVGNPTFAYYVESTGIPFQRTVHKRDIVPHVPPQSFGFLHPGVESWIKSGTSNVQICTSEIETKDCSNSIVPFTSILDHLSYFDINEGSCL
Experimental: as §1

Structure (SMILES)	Hemmwerte in % gegen Esterase [1]	inhibition at 2500 ppm [2]	inhibition at 500 ppm [2]
CCN(CC)C(=O)Cc1ccc(Cl)cc1 [Produkt A, p-Chlorphenylacet-diethylamid]	77%	23%	–
CCN(CC)C(=O)Cc1ccc(OC)c(OC)c1 [Produkt B, 3,4-Dimethoxy-phenylacet-diethylamid]	60%	10%	–
CCN(CC)C(=O)CC(c1ccccc1)c1ccccc1 [Produkt C, 3,3-Diphenyl-propionsäure-diethylamid]	57%	12%	–
CCN(CC)C(=O)C(C)(C)Oc1ccc(Cl)cc1 [Produkt D, 2-(p-Chlorphenoxy)-2-methylpropionsäure-diethylamid]	11%	52%	–
CCN(CC)C(=O)C(C)(C)Sc1ccc(Cl)cc1 [Produkt E, 2-(p-Chlor-phenylthio)-2-methylpropionsäure-diethylamid]	30%	59%	–
CCN(CC)C(=O)COc1ccc(Cl)cc1 [Produkt F, p-Chlor-phenoxyacet-diethylamid]	65%	10%	–
CCN(CC)C(=O)COc1ccc(C)c(C)c1 [Produkt G, 3,4-Dimethyl-phenoxyacet-diethylamid]	48%	12%	–
CCOC(=O)C(O)(c1ccccc1)c1ccccc1 [Produkt H, Benzilsäure-ethylester]	54%	–	28%
